# Test results published in PMC11790914, “Chemogenomics for steroid hormone receptors (NR3)” (Communications Chemistry, 2025).
# Several values for one entry are separate records, joined by “and”; a condition that tells them apart may be missing. Identical values can stand only once.
# What was measured:
# HEK293T cells [1] = assay: Cytotoxicity: apoptosis induction (caspase-3/7 DEVD fluorogenic DNA dye); settings: 3 µM; HEK293T, 24 h; apoptotic cell count normalized to 0.1% DMSO; single replicates
# HEK293T cells [2] = assay: Cytotoxicity: metabolic activity (WST-8 / CCK-8 assay); settings: 3 µM; HEK293T, 24 h; WST-8; normalized to 0.1% DMSO; single replicates
# AURKA = target: T1, AURKA (Homo sapiens, UniProt O14965); assay: Liability panel screening by DSF: AURKA; format: binding; settings: DSF, 20 µM, n=2; read-out: Mean ΔTM AURKA
# T1 construct: made in house
# T1 sequence (O14965 1-403): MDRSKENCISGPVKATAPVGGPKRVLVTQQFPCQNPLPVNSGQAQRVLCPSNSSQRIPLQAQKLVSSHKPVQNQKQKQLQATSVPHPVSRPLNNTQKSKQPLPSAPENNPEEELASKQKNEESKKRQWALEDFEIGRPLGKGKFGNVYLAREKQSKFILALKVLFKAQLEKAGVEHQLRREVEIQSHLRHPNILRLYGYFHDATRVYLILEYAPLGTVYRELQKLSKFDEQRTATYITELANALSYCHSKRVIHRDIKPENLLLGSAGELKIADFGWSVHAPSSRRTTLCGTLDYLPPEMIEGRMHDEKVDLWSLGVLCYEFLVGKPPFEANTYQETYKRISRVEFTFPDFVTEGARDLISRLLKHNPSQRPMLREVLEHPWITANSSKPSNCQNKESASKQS
# Outline: (§1)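 Thermal shift: in-house recombinant protein at 2 µM in 10 mM HEPES pH 7.5 with 500 mM NaCl, SYPRO Orange 1:1000, heated at 3 °C/min to 85 °C in technical duplicates. Tm is the Boltzmann inflection point, reported as ∆Tm in K.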
# HEK293T cells [3] = assay: Cytotoxicity: necrosis induction (red fluorescent dye for permeable plasma membranes); format: cell-based; settings: 3 µM, 24 h, necrotic cell count normalized to 0.1% DMSO, single replicates;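 note: compounds applied in DMEM high glucose with 0.1% FCS and 0.1% DMSO, necrotic HEK293T cells counted by red staining of cells whose plasma membranes had become permeable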
# [4] = system: ATF6 activity in Hela ATF6 reporter cells; assay: Endoplasmic reticulum stress assay (ATF6 Renilla luciferase reporter, tunicamycin); format: cell-based
# Outline: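 ER stress was induced by 100 ng/mL tunicamycin added 4 h after compound (0.1% DMSO) to HeLa ATF6 reporter cells. After 18 h more, Renilla luciferase signal was read and expressed relative to DMSO control, n=5 biological replicates.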
# MAPK1 = target: T2, MAPK1 (Homo sapiens, UniProt P28482); assay: Liability panel screening by DSF: MAPK1; format: binding; settings: DSF, 20 µM, n=2; read-out: Mean ΔTM MAPK1
# T2 construct: made in house
# T2 sequence (P28482 whole entry, species assumed): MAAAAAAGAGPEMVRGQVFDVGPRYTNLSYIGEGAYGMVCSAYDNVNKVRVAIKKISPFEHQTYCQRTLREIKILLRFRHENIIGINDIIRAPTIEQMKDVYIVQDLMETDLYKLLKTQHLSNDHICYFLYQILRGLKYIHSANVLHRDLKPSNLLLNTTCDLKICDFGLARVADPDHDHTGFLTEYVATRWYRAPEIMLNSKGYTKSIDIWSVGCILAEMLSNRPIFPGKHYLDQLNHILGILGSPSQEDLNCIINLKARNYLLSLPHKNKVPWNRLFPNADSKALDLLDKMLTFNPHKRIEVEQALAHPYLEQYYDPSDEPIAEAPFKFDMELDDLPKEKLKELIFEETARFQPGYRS
# Outline: as §1
# CDK2 = target: T3, CDK2 (Homo sapiens, UniProt P24941); assay: Liability panel screening by DSF: CDK2; format: binding; settings: DSF, 20 µM, n=2; read-out: Mean ΔTM CDK2
# T3 construct: made in house
# Outline: as §1
# ABL1 = target: T4, ABL1 (Homo sapiens, UniProt P00519); assay: Liability panel screening by DSF: ABL1; format: binding; settings: DSF, 20 µM, n=2; read-out: Mean ΔTM ABL1
# T4 construct: made in house
# T4 sequence (P00519 whole entry, species assumed): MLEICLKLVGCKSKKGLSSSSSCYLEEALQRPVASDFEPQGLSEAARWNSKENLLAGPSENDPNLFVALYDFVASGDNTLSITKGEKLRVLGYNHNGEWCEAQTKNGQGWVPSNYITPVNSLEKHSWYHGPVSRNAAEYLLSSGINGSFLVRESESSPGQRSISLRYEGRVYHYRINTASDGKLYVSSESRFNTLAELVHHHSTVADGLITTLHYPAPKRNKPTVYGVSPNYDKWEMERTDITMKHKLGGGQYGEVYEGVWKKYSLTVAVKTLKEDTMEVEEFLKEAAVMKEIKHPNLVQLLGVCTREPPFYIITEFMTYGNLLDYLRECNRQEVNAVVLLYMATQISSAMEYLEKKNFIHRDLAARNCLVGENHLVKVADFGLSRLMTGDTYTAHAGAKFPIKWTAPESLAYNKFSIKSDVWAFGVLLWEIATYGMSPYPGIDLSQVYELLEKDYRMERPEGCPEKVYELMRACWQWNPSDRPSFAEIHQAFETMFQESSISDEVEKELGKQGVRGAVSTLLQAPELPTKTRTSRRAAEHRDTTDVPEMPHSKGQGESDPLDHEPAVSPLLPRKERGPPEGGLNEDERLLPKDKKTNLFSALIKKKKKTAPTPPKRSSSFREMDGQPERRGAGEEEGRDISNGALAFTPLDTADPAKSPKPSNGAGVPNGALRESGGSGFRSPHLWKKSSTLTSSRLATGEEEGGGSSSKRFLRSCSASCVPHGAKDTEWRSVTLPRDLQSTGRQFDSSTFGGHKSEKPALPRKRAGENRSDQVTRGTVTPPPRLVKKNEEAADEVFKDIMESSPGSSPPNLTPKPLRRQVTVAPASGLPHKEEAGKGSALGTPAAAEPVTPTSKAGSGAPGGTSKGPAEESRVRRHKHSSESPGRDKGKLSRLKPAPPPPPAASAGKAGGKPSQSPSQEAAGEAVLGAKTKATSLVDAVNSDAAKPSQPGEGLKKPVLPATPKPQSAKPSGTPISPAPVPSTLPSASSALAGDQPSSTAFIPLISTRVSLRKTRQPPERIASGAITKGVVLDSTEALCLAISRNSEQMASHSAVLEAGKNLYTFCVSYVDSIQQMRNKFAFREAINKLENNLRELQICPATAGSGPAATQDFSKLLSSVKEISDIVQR
# Outline: as §1
# [5] = system: NF-κB activity in HEK293 NF-κB reporter cells; assay: NF-kB activity assay (GFP reporter, ionomycin/PMA); format: cell-based; settings: n=3
# Outline: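 Reporter readout: GFP-expressing cells normalized to confluence, imaged every 90 min across 24 h after ionomycin (100 ng/mL)/PMA (10 ng/mL) stimulation of HEK293 cells pre-treated 4 h with compound (0.1% DMSO); triplicate independent experiments.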
# Gal4-VP16 = format: cell-based; settings: 3 µM; vs. DMSO ctrl; single replicates n=1-3
# NR3B3 (ERRγ) = settings: ref Supplementary Table 1; cited from earlier work
# TRIM24 = target: T5, TRIM24 (Homo sapiens, UniProt O15164); assay: Liability panel screening by DSF: TRIM24; format: binding; settings: DSF, 20 µM, n=2; read-out: Mean ΔTM TRIM24
# T5 construct: This panel comprised ten highly ligandable kinases and bromodomains; made in house
# T5 sequence (O15164 899-1004 limits assumed): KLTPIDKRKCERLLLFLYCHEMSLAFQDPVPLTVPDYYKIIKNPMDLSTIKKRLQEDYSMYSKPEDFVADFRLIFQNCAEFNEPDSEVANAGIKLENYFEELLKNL
# Outline: as §1
# BRD4 = target: T6, BRD4 (Homo sapiens, UniProt O60885); assay: Liability panel screening by DSF: BRD4; format: binding; settings: DSF, 20 µM, n=2; read-out: Mean ΔTM BRD4
# T6 construct: This panel comprised ten highly ligandable kinases and bromodomains; made in house
# Outline: as §1
# CSNK1D = target: T7, CSNK1D (Homo sapiens, UniProt P48730); assay: Liability panel screening by DSF: CSNK1D; format: binding; settings: DSF, 20 µM, n=2; read-out: Mean ΔTM CSNK1D
# T7 construct: made in house
# T7 sequence (P48730 whole entry, species assumed): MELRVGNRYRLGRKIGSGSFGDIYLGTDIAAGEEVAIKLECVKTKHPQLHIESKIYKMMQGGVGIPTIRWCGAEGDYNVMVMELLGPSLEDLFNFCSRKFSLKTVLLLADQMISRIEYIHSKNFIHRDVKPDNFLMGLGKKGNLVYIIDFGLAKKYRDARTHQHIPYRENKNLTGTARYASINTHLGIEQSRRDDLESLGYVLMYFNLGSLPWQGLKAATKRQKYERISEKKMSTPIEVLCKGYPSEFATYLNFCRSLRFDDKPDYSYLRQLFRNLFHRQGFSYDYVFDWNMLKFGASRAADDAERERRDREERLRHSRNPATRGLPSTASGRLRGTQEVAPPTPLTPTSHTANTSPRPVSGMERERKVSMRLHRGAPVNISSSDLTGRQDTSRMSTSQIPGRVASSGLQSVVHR
# Outline: as §1
# HEK293T cells [6] = assay: Cytotoxicity: growth-rate (change in confluence over 24 h); settings: 3 µM, normalized to 0.1% DMSO control, single replicates (n=1...)
# NR3B2 (ERRβ) = settings: ref Supplementary Table 1; cited from earlier work
# BRPF1 = target: T8, BRPF1 (Homo sapiens, UniProt P55201); assay: Liability panel screening by DSF: BRPF1; format: binding; settings: DSF, 20 µM, n=2; read-out: Mean ΔTM BRPF1
# T8 construct: This panel comprised ten highly ligandable kinases and bromodomains; made in house
# T8 sequence (P55201 628-732 limits assumed): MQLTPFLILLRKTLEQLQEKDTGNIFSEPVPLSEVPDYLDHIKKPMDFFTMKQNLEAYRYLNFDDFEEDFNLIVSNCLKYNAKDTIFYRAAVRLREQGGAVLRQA
# Outline: as §1
# FGFR3 = target: T9, FGFR3 (Homo sapiens, UniProt P22607); assay: Liability panel screening by DSF: FGFR3; format: binding; settings: DSF, 20 µM, n=2; read-out: Mean ΔTM FGFR3
# T9 construct: made in house
# T9 sequence (P22607 23-806, species assumed): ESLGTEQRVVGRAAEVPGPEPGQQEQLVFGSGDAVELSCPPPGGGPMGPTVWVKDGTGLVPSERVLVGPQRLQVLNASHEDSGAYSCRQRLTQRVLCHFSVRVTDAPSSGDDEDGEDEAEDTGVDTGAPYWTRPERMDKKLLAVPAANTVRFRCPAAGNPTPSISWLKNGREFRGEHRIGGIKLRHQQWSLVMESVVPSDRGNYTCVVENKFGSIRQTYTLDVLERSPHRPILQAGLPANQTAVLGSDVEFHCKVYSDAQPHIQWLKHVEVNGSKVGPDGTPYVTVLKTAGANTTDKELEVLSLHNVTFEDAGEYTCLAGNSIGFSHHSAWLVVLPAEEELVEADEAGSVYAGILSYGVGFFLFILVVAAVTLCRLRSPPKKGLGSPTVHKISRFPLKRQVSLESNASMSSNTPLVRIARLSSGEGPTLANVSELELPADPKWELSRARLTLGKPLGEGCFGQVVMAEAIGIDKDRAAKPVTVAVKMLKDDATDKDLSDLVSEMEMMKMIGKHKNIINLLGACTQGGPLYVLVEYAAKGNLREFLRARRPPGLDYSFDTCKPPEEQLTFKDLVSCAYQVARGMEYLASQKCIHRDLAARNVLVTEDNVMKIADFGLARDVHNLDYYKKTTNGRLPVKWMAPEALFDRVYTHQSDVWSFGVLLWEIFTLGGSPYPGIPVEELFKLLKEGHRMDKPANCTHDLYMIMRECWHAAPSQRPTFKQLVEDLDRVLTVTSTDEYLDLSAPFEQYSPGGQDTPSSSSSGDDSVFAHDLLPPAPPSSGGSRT
# Outline: as §1
# GSK3B = target: T10, GSK3B (Homo sapiens, UniProt P49841); assay: Liability panel screening by DSF: GSK3B; format: binding; settings: DSF, 20 µM, n=2; read-out: Mean ΔTM GSK3B
# T10 construct: made in house
# T10 sequence (P49841 whole entry, species assumed): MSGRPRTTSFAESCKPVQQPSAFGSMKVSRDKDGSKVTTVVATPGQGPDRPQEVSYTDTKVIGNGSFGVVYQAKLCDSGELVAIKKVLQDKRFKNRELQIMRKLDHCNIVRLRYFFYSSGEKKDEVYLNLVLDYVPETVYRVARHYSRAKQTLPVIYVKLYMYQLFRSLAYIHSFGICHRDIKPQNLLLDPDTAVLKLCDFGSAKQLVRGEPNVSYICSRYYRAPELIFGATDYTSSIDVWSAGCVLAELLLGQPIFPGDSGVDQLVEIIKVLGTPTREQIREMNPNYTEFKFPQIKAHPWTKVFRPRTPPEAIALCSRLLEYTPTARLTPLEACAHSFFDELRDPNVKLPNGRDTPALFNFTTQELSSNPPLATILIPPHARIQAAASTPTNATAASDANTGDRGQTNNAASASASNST
structure (smiles),measurement,setting,value
CC(C)c1ccc(/C=N/NC(=O)c2ccc(O)cc2)cc1 [GSK4716],Apoptosis induction [AI],HEK293T cells [1],1.16 and 0.91 and 0.96 and 0.89 and 0.51 and 0.66
same,Metabolic activity [MA],HEK293T cells [2],1.04 and 0.92 and 0.86 and 0.83 and 0.84 (2×) and 0.81 and 0.76
same,ΔTm at 20 µM,AURKA,0.71 °C
same,Necrosis induction [NI],HEK293T cells [3],0.73 and 0.72 and 1.06 and 0.88
same,ATF6 activity (tunicamycin-induced endoplasmic reticulum stress),"[4]; Hela ATF6 reporter cells, tunicamycin 100 ng/mL, 18 h, compounds at recommended concentrations, n = 5",strongly ameliorated the tunicamycin-induced endoplasmic reticulum stress
same,activity at 3 µM,"[4]; Homo sapiens, HeLa, 3 µM, single replicates n=1 to n=5, read-out: ER stress [rel. ATF6 activity]",15%
same,ΔTm at 20 µM,MAPK1,0.09 °C
same,ΔTm at 20 µM,CDK2,1.04 °C
same,ΔTm at 20 µM,ABL1,1.07 °C
same,Mean NFκB response,"[5]; 3 µM, 1,5 h",3350.67 GFP+-cells/confluence ∙ 1000
same,Mean NFκB response,"[5]; 3 µM, 4,5 h",4011.96 GFP+-cells/confluence ∙ 1000
same,Mean NFκB response,"[5]; 3 µM, 7,5 h",8902.65 GFP+-cells/confluence ∙ 1000
same,Mean NFκB response,"[5]; 3 µM, 10,5 h",19241.33 GFP+-cells/confluence ∙ 1000
same,Mean NFκB response,"[5]; 3 µM, 13,5 h",27824.67 GFP+-cells/confluence ∙ 1000
same,Mean NFκB response,"[5]; 3 µM, 16,6 h",34184.33 GFP+-cells/confluence ∙ 1000
same,Mean NFκB response,"[5]; 3 µM, 19,5 h",38593.33 GFP+-cells/confluence ∙ 1000
same,Mean NFκB response,"[5]; 3 µM, 22,5 h",41930.00 GFP+-cells/confluence ∙ 1000
same,Mean NFκB response,"[5]; 3 µM, 3 h",3264.72 GFP+-cells/confluence ∙ 1000
same,Mean NFκB response,"[5]; 3 µM, 6 h",5255.77 GFP+-cells/confluence ∙ 1000
same,Mean NFκB response,"[5]; 3 µM, 9 h",14135.33 GFP+-cells/confluence ∙ 1000
same,Mean NFκB response,"[5]; 3 µM, 12 h",23629.33 GFP+-cells/confluence ∙ 1000
same,Mean NFκB response,"[5]; 3 µM, 15 h",31599.67 GFP+-cells/confluence ∙ 1000
same,Mean NFκB response,"[5]; 3 µM, 18 h",36410.00 GFP+-cells/confluence ∙ 1000
same,Mean NFκB response,"[5]; 3 µM, 21 h",40543.33 GFP+-cells/confluence ∙ 1000
same,Mean NFκB response,"[5]; 3 µM, 24 h",43546.67 GFP+-cells/confluence ∙ 1000
same,VP16 control [fold reporter gene activity],Gal4-VP16,1.46 fold reporter gene activity and 1.30 fold reporter gene activity and 1.47 fold reporter gene activity
same,"rel. activity from literature, NR3B3 (ERRγ): fold activation",NR3B3 (ERRγ),6 fold
same,ΔTm at 20 µM,TRIM24,0.64 °C
same,ΔTm at 20 µM,BRD4,-0.72 °C
same,ΔTm at 20 µM,CSNK1D,-0.73 °C
same,Growth rate [GR],HEK293T cells [6],0.56 and 4.17 and 0.59 and 0.95 and 0.79 and 0.39 and 0.32 and 1.23 and 0.96 and 33.22
same,"rel. activity from literature, NR3B2 (ERRβ): fold activation",NR3B2 (ERRβ),10 fold
same,ΔTm at 20 µM,BRPF1,0.6 °C
same,ΔTm at 20 µM,FGFR3,0.7 °C
same,ΔTm at 20 µM,GSK3B,-3.45 °C
